Tests used:
Human 5-lipoxygenase = biological target: T1, Human 5-lipoxygenase (Homo sapiens, UniProt P09917); experiment: Activity of compounds against 5-LO enzyme (LTB4 measurement and/or fluorescence method); assay type: biochemical; settings: for inhibition at 10 µM: 5-LO, single concentration of 10 uM in duplicate; for IC50: 6 or 11 point dose response in duplicate
T1 construct: purchased Cayman 60402; host or cells: insect cells
T1 sequence (P09917 1-674): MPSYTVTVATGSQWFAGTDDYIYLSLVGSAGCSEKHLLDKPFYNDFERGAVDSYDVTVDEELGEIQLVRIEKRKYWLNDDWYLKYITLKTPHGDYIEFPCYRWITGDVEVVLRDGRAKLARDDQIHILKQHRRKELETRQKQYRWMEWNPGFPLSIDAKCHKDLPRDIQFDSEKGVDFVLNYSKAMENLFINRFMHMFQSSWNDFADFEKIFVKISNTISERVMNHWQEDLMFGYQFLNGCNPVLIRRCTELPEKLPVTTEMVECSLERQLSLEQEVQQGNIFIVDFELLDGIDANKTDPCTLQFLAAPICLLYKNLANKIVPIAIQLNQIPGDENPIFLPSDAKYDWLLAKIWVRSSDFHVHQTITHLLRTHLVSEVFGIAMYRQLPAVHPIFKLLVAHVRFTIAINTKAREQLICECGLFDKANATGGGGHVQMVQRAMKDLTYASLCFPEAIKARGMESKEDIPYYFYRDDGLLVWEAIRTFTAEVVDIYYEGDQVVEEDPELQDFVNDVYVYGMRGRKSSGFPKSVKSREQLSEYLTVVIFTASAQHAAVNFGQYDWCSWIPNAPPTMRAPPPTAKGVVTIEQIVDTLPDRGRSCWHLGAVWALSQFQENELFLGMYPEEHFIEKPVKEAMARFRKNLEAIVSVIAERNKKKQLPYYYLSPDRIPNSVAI
Method in brief: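 Insect-cell human 5-LO preincubated 15 min at RT with compound (pH 7.4, 2 mM CaCl2, 0.1 mM ATP, 1% DMSO), then 3 uM arachidonic acid for 5 min at 37 °C; LTB4 quantified by EIA and/or LC/MS/MS. Alternatively, fluorescence of 5-HpETE via H2DCFDA, 100 uM ATP, 3 uM arachidonic acid, 5 min, RT; single 10 uM screen then 6- or 11-point IC50.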

SMILES	inhibition at 10 µM (Human 5-lipoxygenase) [%]	melting point	IC50 (Human 5-lipoxygenase) [nM]
CCc1nc2cc(C)ccn2c1C(=O)NCc1ccc2ccccc2c1 [compound 95, 2-Ethyl-7-methyl-N-(naphthalen-2-ylmethyl)imidazo[1,2-a]pyridine-3-carboxamide]	40 to 69	192 °C	
CCc1nc2ccc(Cl)cn2c1C(=O)NCc1ccc(N2CCC(c3ccccc3)CC2)cc1 [compound 210, 6-Chloro-2-ethyl-N-(4-(4-phenylpiperidin-1-yl)benzyl)imidazo[1,2-a]pyridine-3-carboxamide]	40 to 69	138.2 °C	
CCc1nc2ccc(Br)cn2c1C(=O)NCc1ccc(OCc2ccc(OC(F)(F)F)cc2)cc1 [compound 206, 6-Bromo-2-ethyl-N-(4-(4-(trifluoromethoxy)benzyloxy)benzyl)imidazo[1,2-a]pyridine-3-carboxamide]	< 40	189.7 °C	
CCc1nc2cc(Cl)ccn2c1C(=O)NCc1ccc(N2CCN(c3ccc(OC(F)(F)F)cc3)CC2)cc1 [compound 159, 7-Chloro-2-ethyl-N-(4-(4-(4-(trifluoromethoxy)phenyl)piperazin-1-yl)benzyl)imidazo[1,2-a]pyridine-3-carboxamide]	40 to 69	216.3 to 217 °C	
CCc1nc2cc(Cl)ccn2c1C(=O)NCc1ccc(N2CCC(COc3ccc(OC(F)(F)F)cc3)CC2)cc1 [compound 214, 7-Chloro-2-ethyl-N-(4-(4-((4-(trifluoromethoxy)phenoxy)methyl)piperidin-1-yl)benzyl)imidazo[1,2-a]pyridine-3-carboxamide]	< 40	189.5 °C	
CCc1nc2ccc(Cl)cn2c1C(=O)NCCc1ccc(Cl)cc1 [compound 137, 6-Chloro-N-(4-chlorophenethyl)-2-ethylimidazo[1,2-a]pyridine-3-carboxamide]	40 to 69	158 to 159 °C	
CCc1nc2cc(Cl)ccn2c1C(=O)NCc1ccc(N2C=CC(=O)CC2)cc1 [compound 201, 7-Chloro-2-ethyl-N-(4-(4-oxo-3,4-dihydropyridin-1(2H)-yl)benzyl)imidazo[1,2-a]pyridine-3-carboxamide]	< 40	201.3 to 202.8 °C	
CCc1nc2ccc(Cl)cn2c1C(=O)NCc1ccc(N2CCN(c3ccc(OC(F)(F)F)cc3)CC2)cc1 [compound 158, 6-Chloro-2-ethyl-N-(4-(4-(4-(trifluoromethoxy)phenyl)piperazin-1-yl)benzyl)imidazo[1,2-a]pyridine-3-carboxamide]	40 to 69	206.5 to 207 °C	
CCc1nc2cc(C)ccn2c1C(=O)NCc1ccc(N2CCOCC2)cc1 [compound 94, 2-Ethyl-7-methyl-N-(4-morpholinobenzyl)imidazo[1,2-a]pyridine-3-carboxamide]	< 40	190 °C	
CCc1nc2ccc(Cl)cn2c1C(=O)NCc1ccc(N2CC(C)OC(C)C2)cc1 (stereo not drawn) [compound 182, 6-Chloro-N-(4-(2,6-dimethylmorpholino)benzyl)-2-ethylimidazo[1,2-a]pyridine-3-carboxamide]	< 40	176 to 177 °C	
CCc1nc2cc(Cl)ccn2c1C(=O)NCc1ccc(N2CCN(Cc3ccc(F)cc3)CC2)cc1 [compound 126, 7-Chloro-2-ethyl-N-(4-(4-(4-fluorobenzyl)piperazin-1-yl)benzyl)imidazo[1,2-a]pyridine-3-carboxamide]	> 69	141 to 142 °C	1000 to 20000
CCc1nc2cc(Cl)ccn2c1C(=O)NCc1ccc(N2CCC(Oc3ccc(F)cc3)CC2)cc1 [compound 70, 7-Chloro-2-ethyl-N-(4-(4-(4-fluorophenoxy)piperidin-1-yl)benzyl)imidazo[1,2-a]pyridine-3-carboxamide]	> 69	138 to 139 °C	1000 to 20000
CCc1nc2ccc(Cl)cn2c1C(=O)NCc1ccc(N2CCC(CO)CC2)cc1 [compound 230, 6-Chloro-2-ethyl-N-(4-(4-(hydroxymethyl)piperidin-1-yl)benzyl)imidazo[1,2-a]pyridine-3-carboxamide]	< 40	161.1 °C	

Results, then the molecule that gave them:

inhibition at 10 µM (Human 5-lipoxygenase) [%]	melting point	IC50 (Human 5-lipoxygenase) [nM]	SMILES
40 to 69	> 177.7 °C (dec.)		CCc1nc2c(F)cccn2c1C(=O)NCc1ccc(N2CCC(c3ccc(OC(F)(F)F)cc3)CC2)cc1 [compound 373, 2-ethyl-8-fluoro-N-(4-(4-(4-(trifluoromethoxy)phenyl)piperidin-1-yl)benzyl)imidazo[1,2-a]pyridine-3-carboxamide]
< 40	210.1 °C		CCc1nc2cc(-c3ccncc3)ccn2c1C(=O)NCc1ccc(N2CCOCC2)cc1 [compound 255, 2-Ethyl-N-(4-morpholinobenzyl)-7-(pyridin-4-yl)imidazo[1,2-a]pyridine-3-carboxamide]
< 40	163 °C		CCc1nc2ccc(Cl)cn2c1C(=O)NCc1ccc(N2CCN3CCCC3C2)cc1 (stereo not drawn) [compound 237, 6-Chloro-2-ethyl-N-(4-(hexahydropyrrolo[1,2-a]pyrazin-2(1H)-yl)benzyl)imidazo[1,2-a]pyridine-3-carboxamide]
> 69	163 °C	< 1000	CCc1nc2cc(Cl)ccn2c1C(=O)NCc1ccc2oc(C3CCCCC3)nc2c1 [compound 299, 7-Chloro-N-((2-cyclohexylbenzo[d]oxazol-5-yl)methyl)-2-ethylimidazo[1,2-a]pyridine-3-carboxamide]
< 40	> 220 °C		CCc1nc2ccc(Cl)cn2c1C(=O)NCc1cc2cc(Cl)ccc2s1 [compound 361, 6-chloro-N-((5-chlorobenzo[b]thiophen-2-yl)methyl)-2-ethylimidazo[1,2-a]pyridine-3-carboxamide]
< 40	135.5 to 136.4 °C		CCc1nc2ccc(Cl)cn2c1C(=O)NCc1cccc(N2CCC(c3ccc(OC(F)(F)F)cc3)CC2)c1 [compound 354, 6-chloro-2-ethyl-N-(3-(4-(4-(trifluoromethoxy)phenyl)piperidin-1-yl)benzyl)imidazo[1,2-a]pyridine-3-carboxamide]
40 to 69	216.2 to 220.7 °C		CCc1nc2ccc(Cl)cn2c1C(=O)NCc1ccc(C2CCN(C(=O)Cc3ccc(F)cc3)CC2)cc1 [compound 327, 6-chloro-2-ethyl-N-(4-(1-(2-(4-fluorophenyl)acetyl)piperidin-4-yl)benzyl)imidazo[1,2-a]pyridine-3-carboxamide]
	228.8 °C	< 1000	Cc1nc2cccc(C)n2c1CNc1ccc(N2CCC(c3ccc(F)cc3)CC2)cc1 [compound 401, N-((2,5-dimethylimidazo[1,2-a]pyridin-3-yl)methyl)-4-(4-(4-fluorophenyl)piperidin-1-yl)aniline]
	80.7 °C	1000 to 20000	CCc1nc2ccc(Cl)cn2c1C(=O)N1CCC(Oc2ccc(OC(F)(F)F)cc2)CC1 [compound 384, (6-Chloro-2-ethylimidazo[1,2-a]pyridin-3-yl)(4-(4-(trifluoromethoxy)phenoxy)piperidin-1-yl)methanone]
< 40	> 198.8 °C (dec.)		CCc1nc2ccc(Cl)cn2c1C(=O)NCc1cccc(CC(=O)Nc2ccc(F)cc2)c1 [compound 355, 6-chloro-2-ethyl-N-(3-(2-((4-fluorophenyl)amino)-2-oxoethyl)benzyl)imidazo[1,2-a]pyridine-3-carboxamide]
< 40	132.2 to 133 °C		CCc1nc2ccc(Cl)cn2c1C(=O)NCc1ccc(CC2CCOCC2)cc1 [compound 358, 6-chloro-2-ethyl-N-(4-((tetrahydro-2H-pyran-4-yl)methyl)benzyl)imidazo[1,2-a]pyridine-3-carboxamide]
< 40	> 220 °C		CCc1nc2ccc(Cl)cn2c1C(=O)NCc1nc2cc(Cl)ccc2n1C [compound 368, 6-chloro-N-((5-chloro-1-methyl-1H-benzo[d]imidazol-2-yl)methyl)-2-ethylimidazo[1,2-a]pyridine-3-carboxamide]
40 to 69	197.9 °C		CCc1nc2ccc(Cl)cn2c1C(=O)NCc1ccc(N2CCC(C(F)(F)F)CC2)cc1 [compound 233, 6-Chloro-2-ethyl-N-(4-(4-(trifluoromethyl)piperidin-1-yl)benzyl)imidazo[1,2-a]pyridine-3-carboxamide]
	159.5 °C	1000 to 20000	CCc1nc2ccc(Cl)cn2c1CNc1ccc(N2CCC(c3ccc(Cl)cc3)CC2)cc1 [compound 392, N-((6-chloro-2-ethylimidazo[1,2-a]pyridin-3-yl)methyl)-4-(4-(4-chlorophenyl)piperidin-1-yl)aniline]

Source: patent US9029389B2 (Institut Pasteur Korea, priority 2011, dated 2015)
